According to PubChem BioAssay (NCI):
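Method: 48-hour compound exposure of cells in 96-well plates, five concentrations, linear interpolation of endpoints. Abbreviation: GI50, concentration required for 50% inhibition of growth. TGI: total growth inhibition.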

Experiments:
Test in all cases: inhibition of tumour cell growth, NCI panel, 48 h
TK-10 renal = test system: TK-10 renal
DU-145 prostate = test system: DU-145 prostate
M14 melanoma = test system: M14 melanoma
MALME-3M melanoma = test system: MALME-3M melanoma
HL-60(TB) leukemia = test system: HL-60(TB) leukemia
IGROV1 ovarian = test system: IGROV1 ovarian
KM12 colon = test system: KM12 colon
RPMI-8226 leukemia = test system: RPMI-8226 leukemia
SF-268 CNS = test system: SF-268 CNS
SN12C renal = test system: SN12C renal
HT29 colon = test system: HT29 colon
ACHN renal = test system: ACHN renal
MDA-N = test system: MDA-N

Q: Which results are given for O=C(O)c1ccccc1/C=C1\Cc2ccc3c(c2C1=O)CCCC3?
A: TGI (TK-10 renal): > 100 µM; TGI (DU-145 prostate): > 100 µM; TGI (M14 melanoma): 81.1 µM; TGI (MALME-3M melanoma): > 100 µM; TGI (HL-60(TB) leukemia): 62.3 µM; TGI (IGROV1 ovarian): > 100 µM; TGI (KM12 colon): > 100 µM; TGI (RPMI-8226 leukemia): 60.8 µM; TGI (SF-268 CNS): > 100 µM; TGI (SN12C renal): > 100 µM; TGI (HT29 colon): > 100 µM; TGI (ACHN renal): > 100 µM

Q: For N#CCCN(CCC#N)c1ccc(/C=C2\N=C(c3ccccc3)N(NC(=O)c3ccncc3)C2=O)cc1, which TGI (TK-10 renal) is on record?
A: Its TGI is over 100 µM.

Q: What about the TGI (DU-145 prostate) of the same compound?
A: The TGI was over 100 µM.

Q: And the TGI (M14 melanoma)?
A: The TGI was over 100 µM.

Q: And the TGI (MDA-N)?
A: Its TGI is over 100 µM.

Q: And the TGI (HL-60(TB) leukemia)?
A: Its TGI is over 100 µM.

Q: What about the TGI (IGROV1 ovarian) of the same compound?
A: Its TGI is over 100 µM.

Q: What about the TGI (KM12 colon) of the same compound?
A: Its TGI is over 100 µM.

Q: And the TGI (RPMI-8226 leukemia)?
A: The TGI was over 100 µM.

Q: And the TGI (SF-268 CNS)?
A: The TGI was over 100 µM.

Q: What about the TGI (SN12C renal) of the same compound?
A: Its TGI is over 100 µM.

Q: And the TGI (HT29 colon)?
A: The TGI was over 100 µM.

Q: And the TGI (ACHN renal)?
A: The TGI was over 100 µM.

Q: For CC(=O)/C(=C\n1c(=S)[nH]c2ccc([N+](=O)[O-])cc21)C(=O)Nc1ccccc1C, which TGI (DU-145 prostate) is on record?
A: The TGI was over 100 µM.

Q: What about the TGI (M14 melanoma) of the same compound?
A: The TGI was over 100 µM.

Q: What about the TGI (MALME-3M melanoma) of the same compound?
A: The TGI was over 100 µM.

Q: What about the TGI (MDA-N) of the same compound?
A: Its TGI is over 100 µM.

Q: And the TGI (HL-60(TB) leukemia)?
A: The TGI was over 100 µM.

Q: And the TGI (IGROV1 ovarian)?
A: The TGI was over 100 µM.

Q: And the TGI (RPMI-8226 leukemia)?
A: The TGI was over 100 µM.

Q: What about the TGI (SN12C renal) of the same compound?
A: Its TGI is over 100 µM.

Q: And the TGI (HT29 colon)?
A: The TGI was over 100 µM.

Q: What about the TGI (ACHN renal) of the same compound?
A: The TGI was over 100 µM.

Q: What does the source list for CN(N=O)C(N)=NC(=O)c1ccccc1?
A: TGI (TK-10 renal): > 100 µM; TGI (M14 melanoma): > 100 µM; TGI (MALME-3M melanoma): > 100 µM; TGI (MDA-N): > 100 µM; TGI (IGROV1 ovarian): > 100 µM; TGI (KM12 colon): > 100 µM; TGI (RPMI-8226 leukemia): > 100 µM; TGI (SF-268 CNS): > 100 µM; TGI (HT29 colon): > 100 µM; TGI (ACHN renal): > 100 µM

Q: What does the source list for Cc1c(/C=N\NC(=S)N(C)CCN(C)C(=S)N/N=C\c2c(C)n(C)n(-c3ccccc3)c2=O)c(=O)n(-c2ccccc2)n1C?
A: TGI (TK-10 renal): > 100 µM; TGI (DU-145 prostate): > 100 µM; TGI (M14 melanoma): > 100 µM; TGI (MALME-3M melanoma): > 100 µM; TGI (KM12 colon): > 100 µM; TGI (SF-268 CNS): > 100 µM; TGI (HT29 colon): > 100 µM; TGI (ACHN renal): > 100 µM

Q: What does the source list for N#Cc1c(-c2ccccc2)cc(Nc2ccc(F)cc2)n2c1nc1ccccc12?
A: TGI (TK-10 renal): > 54 µM; TGI (DU-145 prostate): > 100 µM; TGI (M14 melanoma): > 100 µM; TGI (MALME-3M melanoma): > 28.4 µM; TGI (HL-60(TB) leukemia): > 100 µM; TGI (IGROV1 ovarian): > 100 µM; TGI (KM12 colon): > 100 µM; TGI (RPMI-8226 leukemia): > 100 µM; TGI (SF-268 CNS): > 62.1 µM; TGI (SN12C renal): 6.1 µM; TGI (HT29 colon): 6.43 µM; TGI (ACHN renal): 10.6 µM

Q: Which GI50 (TK-10 renal) does the source give for CC[n+]1c(/C=C/c2ccc(N(CCCl)CCCl)cc2)ccc2cc(Br)ccc21 here?
A: Its GI50 is 652 µM.

Q: What about the TGI (M14 melanoma) of the same compound?
A: Its TGI is 4.19 µM.

Q: What about the GI50 (MALME-3M melanoma) of the same compound?
A: The GI50 was 84 µM.

Q: What about the GI50 (HL-60(TB) leukemia) of the same compound?
A: The GI50 was 86.2 µM.

Q: What about the TGI (IGROV1 ovarian) of the same compound?
A: The TGI was 18.4 µM.

Q: And the TGI (KM12 colon)?
A: Its TGI is 3.3 µM.

Q: And the GI50 (RPMI-8226 leukemia)?
A: Its GI50 is 162 µM.

Q: And the TGI (SN12C renal)?
A: The TGI was 10.6 µM.

Q: What about the GI50 (HT29 colon) of the same compound?
A: Its GI50 is 548 µM.

Q: And the GI50 (ACHN renal)?
A: Its GI50 is 1060 µM.

Q: Which results are given for CCOC(=O)C(NC(=O)Nc1ccccc1F)(OC)C(F)(F)F (configuration not stated)?
A: TGI (TK-10 renal): > 100 µM; TGI (M14 melanoma): > 100 µM; TGI (MDA-N): > 100 µM; TGI (HL-60(TB) leukemia): > 100 µM; TGI (IGROV1 ovarian): > 100 µM; TGI (RPMI-8226 leukemia): > 100 µM; TGI (SF-268 CNS): > 100 µM; TGI (SN12C renal): > 100 µM; TGI (HT29 colon): > 100 µM; TGI (ACHN renal): > 100 µM

Q: For CCCNc1c(Cl)cc(Cl)c2[nH]c3ccccc3c(=O)c12, which TGI (TK-10 renal) is on record?
A: The TGI was over 100 µM.

Q: What about the TGI (M14 melanoma) of the same compound?
A: Its TGI is over 100 µM.

Q: What about the TGI (MALME-3M melanoma) of the same compound?
A: Its TGI is 75.3 µM.

Q: And the TGI (MDA-N)?
A: Its TGI is over 100 µM.

Q: What about the TGI (HL-60(TB) leukemia) of the same compound?
A: The TGI was 47.6 µM.

Q: And the TGI (IGROV1 ovarian)?
A: The TGI was over 100 µM.

Q: And the TGI (KM12 colon)?
A: The TGI was over 100 µM.

Q: What about the TGI (RPMI-8226 leukemia) of the same compound?
A: The TGI was over 100 µM.

Q: What about the TGI (SN12C renal) of the same compound?
A: Its TGI is over 100 µM.

Q: And the TGI (HT29 colon)?
A: Its TGI is over 100 µM.

Q: What about the TGI (ACHN renal) of the same compound?
A: The TGI was over 100 µM.

Q: Which TGI (TK-10 renal) does the source give for CCOC(=O)CC(=O)Nc1c(C(=O)OCC)sc2nc(SC)nc(Nc3ccc(OC)c(OC)c3)c12 here?
A: The TGI was over 100 µM.

Q: What about the TGI (DU-145 prostate) of the same compound?
A: Its TGI is over 100 µM.

Q: And the TGI (M14 melanoma)?
A: The TGI was over 100 µM.

Q: And the TGI (MALME-3M melanoma)?
A: The TGI was over 100 µM.

Q: What about the TGI (MDA-N) of the same compound?
A: The TGI was over 100 µM.

Q: And the TGI (HL-60(TB) leukemia)?
A: The TGI was over 100 µM.

Q: What about the TGI (IGROV1 ovarian) of the same compound?
A: The TGI was over 100 µM.

Q: What about the TGI (KM12 colon) of the same compound?
A: The TGI was over 100 µM.

Q: What about the TGI (SF-268 CNS) of the same compound?
A: Its TGI is over 100 µM.

Q: What about the TGI (SN12C renal) of the same compound?
A: Its TGI is over 100 µM.

Q: And the TGI (HT29 colon)?
A: The TGI was over 100 µM.

Q: And the TGI (ACHN renal)?
A: The TGI was over 100 µM.
